For data set [1], the system named is HeLa MKYP cells. Briefly: Toxicity / cell death measured by DAPI staining (take-up). The class given is cell-based. To be noted: 50 μM. On the procedure: H2O2 treatment was performed as a control for cell death as measured by DAPI staining.
Briefly, HeLa MKYP cells were plated at 10,000 cells/well in 96 well plates along with compounds at various concentrations. Following 16 hrs of incubation, cells were treated with 1 uM FCCP/oligomycin for 6 hours, then analyzed via FACS for the presence of mitochondria in lysosomes (as determined by an emissions spectrum shift from the pH-sensitive mtKeima tag).

For data set [2], the system named is Hela MKYP (Mito-Keima/YFP-Parkin) cells. As to the kind of experiment: Inspection of round cells. To be noted: Tables 6A-6D.
Method: (§1) Briefly, the Hela MKYP (Mito-Keima/YFP-Parkin) cells were seeded at 10K cells/well. EP/MTK compounds were added at seeding (cells were still in suspension). The cells were incubated with the EP/MTK compounds for 16 hours, then 1 μM FCCP/oligomycin was added for 6 hours. Prior to harvesting, cells were scored by eye under 20× magnification for the presence or absence of crystalline or aggregated compound, or round cells.
Data set [3] has as its system HeLa MKYP cells. Briefly: Human mitophagy assay (HeLa MKYP, mtKeima FACS, FCCP/oligomycin). The class given is cell-based. On the procedure: Briefly, HeLa MKYP cells were plated at 10,000 cells/well in 96 well plates along with compounds at various concentrations. Following 16 hrs of incubation, cells were treated with 1 uM FCCP/oligomycin for 6 hours, then analyzed via FACS for the presence of mitochondria in lysosomes (as determined by an emissions spectrum shift from the pH-sensitive mtKeima tag). Examples are shown in FIG. 1 through FIG. 13 below.

Data set [4] in a line: Visual inspection of crystallization. Set-up: key: 1: yes crystals; 0: no crystals. The class given is physicochemical. To be noted: Tables 5A-5D.
Method: as §1
[5] abbreviates: Homo sapiens, HeLa, Table 3, read-out: Potency at 1 μM F/O toxin* (EC50 of mitophagy activation).
The mark [6] stands for this setting: Homo sapiens, HeLa, Table 3 Supplement A, as measured in Table 3, read-out: Potency (EC50 Max Mitophagy) (μM)*.

Like-named read-outs stand apart in the source and are kept apart here.

`CN(C)C1CCC(CNc2ncnc3[nH]c(C(F)(F)F)cc23)CC1` (stereo not drawn) [Compound 50]: the “Toxicity (% positive for DAPI takeup @ 50 μM)” value in data set [1] (Table 3) turned out to be 5.2%. For the same compound, the “Toxicity (% positive for DAPI take-up at 50 μM)*” value in data set [1] (Table 3 Supplement A) is on record as 5.16%. Moreover, the “Inspection of round cells” value in data set [2] (1.6 μM), in data set [2] (3.1 μM), in data set [2] (6.3 μM), in data set [2] (12.5 μM), in data set [2] (25.0 μM) and in data set [2] (50.0 μM) was 0 throughout. In addition, the EC50 in data set [3] (setting [5]) was over 50 µM. For the same compound, the “Potency (EC50 Max Mitophagy) (μM)*” value in data set [3] (Table 3 Supplement A, as measured in Table 3) came out at 0.01 µM. Besides, the “Visual inspection of crystallization” value in data set [4] (1.6 μM), in data set [4] (3.1 μM), in data set [4] (6.3 μM), in data set [4] (12.5 μM), in data set [4] (25.0 μM) and in data set [4] (50.0 μM) was 0 each time.
Take `CC(Nc1ncnc2[nH]cnc12)c1ccccc1` (stereo not drawn) [Compound 71]: in data set [1] (Table 3), the “Toxicity (% positive for DAPI takeup @ 50 μM)” value worked out at 18.2%. Also, in data set [1] (Table 3 Supplement A), the “Toxicity (% positive for DAPI take-up at 50 μM)*” value was determined as 22.24%. Moreover, the “Inspection of round cells” value in data set [2] (1.6 μM), in data set [2] (3.1 μM), in data set [2] (6.3 μM), in data set [2] (12.5 μM), in data set [2] (25.0 μM) and in data set [2] (50.0 μM) was 0 each time. Besides, the EC50 stood at 3.5 µM in data set [3] (setting [5]) and 2.69 µM in data set [3] (setting [6]). Also, the “Visual inspection of crystallization” value in data set [4] (1.6 μM), in data set [4] (3.1 μM), in data set [4] (6.3 μM), in data set [4] (12.5 μM), in data set [4] (25.0 μM) and in data set [4] (50.0 μM) was 0 each time.
In the case of `C[C@@H](Nc1ncnc2[nH]c(C(F)(F)F)cc12)c1cncnc1` [Compound 70], in data set [1] (human), the “Toxicity (% positive for DAPI take-up at 50 μM)*” value is 22.95%. Also, the “Toxicity (% positive for DAPI takeup @ 50 μM)” value in data set [1] (human) came out at 22.9%. Besides, the “Inspection of round cells” value in data set [2] (1.6 μM), in data set [2] (3.1 μM), in data set [2] (6.3 μM), in data set [2] (12.5 μM), in data set [2] (25.0 μM) and in data set [2] (50.0 μM) was 0 each time. Further, the EC50 in data set [3] (setting [5]) and in data set [3] (setting [6]) was 21.6 µM each time. The “Visual inspection of crystallization” value in data set [4] (1.6 μM), in data set [4] (3.1 μM), in data set [4] (6.3 μM), in data set [4] (12.5 μM), in data set [4] (25.0 μM) and in data set [4] (50.0 μM) was 0 throughout.
Consider `CCCCNc1ncnc2[nH]c(C(F)(F)F)c(C)c12` [Compound 68], for which, in data set [1] (Table 3), the “Toxicity (% positive for DAPI takeup @ 50 μM)” value is 11.9%. Moreover, the “Toxicity (% positive for DAPI take-up at 50 μM)*” value in data set [1] (Table 3 Supplement A) is recorded as 11.94%. For the same compound, the “Inspection of round cells” value in data set [2] (1.6 μM), in data set [2] (3.1 μM), in data set [2] (6.3 μM), in data set [2] (12.5 μM), in data set [2] (25.0 μM) and in data set [2] (50.0 μM) was 0 in each case. For the same compound, the EC50 in data set [3] (setting [5]) is over 50 µM; in data set [3] (setting [6]), over 25 µM. The “Visual inspection of crystallization” value in data set [4] (1.6 μM), in data set [4] (3.1 μM), in data set [4] (6.3 μM), in data set [4] (12.5 μM), in data set [4] (25.0 μM) and in data set [4] (50.0 μM) was 0 each time.
As for `c1ncc(CNc2ncnc3[nH]cnc23)cn1` [Compound 67], the “Toxicity (% positive for DAPI take-up at 50 μM)*” value in data set [1] (human) stood at 5.33%. The “Toxicity (% positive for DAPI takeup @ 50 μM)” value in data set [1] (human) was 5.3%. Moreover, the “Inspection of round cells” value in data set [2] (1.6 μM), in data set [2] (3.1 μM), in data set [2] (6.3 μM), in data set [2] (12.5 μM), in data set [2] (25.0 μM) and in data set [2] (50.0 μM) was 0 throughout. Moreover, the figures for the EC50 in data set [3] (setting [5]) and in data set [3] (setting [6]) were 4.4 µM and 4.42 µM, respectively. Moreover, the “Visual inspection of crystallization” value in data set [4] (1.6 μM), in data set [4] (3.1 μM), in data set [4] (6.3 μM), in data set [4] (12.5 μM), in data set [4] (25.0 μM) and in data set [4] (50.0 μM) was 0 in each case.
For `COc1ncc(CNc2ncnc3[nH]c(C(F)(F)F)cc23)cn1` [Compound 66], in data set [1] (Table 3), the “Toxicity (% positive for DAPI takeup @ 50 μM)” value was 5.8%. Moreover, the “Toxicity (% positive for DAPI take-up at 50 μM)*” value in data set [1] (Table 3 Supplement A) was found to be 5.76%. The “Inspection of round cells” value in data set [2] (1.6 μM) came out at 0; in data set [2] (3.1 μM), 0; in data set [2] (6.3 μM), 0; in data set [2] (12.5 μM), 0; in data set [2] (25.0 μM), 1; in data set [2] (50.0 μM) it was 1. For the same compound, the EC50 in data set [3] (setting [5]) and in data set [3] (setting [6]) was 10.6 µM each time. In addition, the “Visual inspection of crystallization” value came to 0 in data set [4] (1.6 μM); 0 in data set [4] (3.1 μM); 0 in data set [4] (6.3 μM); 0 in data set [4] (12.5 μM); 1 in data set [4] (25.0 μM); 1 in data set [4] (50.0 μM).
Take `CCCCNc1ncnc2c1cc(C(F)(F)F)n2C(C)=O` [Compound 69]: the “Toxicity (% positive for DAPI takeup @ 50 μM)” value in data set [1] (Table 3) is 36.6%. Also, the “Inspection of round cells” value in data set [2] (1.6 μM), in data set [2] (3.1 μM), in data set [2] (6.3 μM), in data set [2] (12.5 μM), in data set [2] (25.0 μM) and in data set [2] (50.0 μM) was 0 throughout. Moreover, the EC50 in data set [3] (setting [5]) was over 50 µM. Moreover, the “Visual inspection of crystallization” value in data set [4] (1.6 μM), in data set [4] (3.1 μM), in data set [4] (6.3 μM), in data set [4] (12.5 μM), in data set [4] (25.0 μM) and in data set [4] (50.0 μM) was 0 in each case.
As for `CC(Nc1ncnc2[nH]c(C3CC3)nc12)c1ccccc1` (stereo not drawn) [Compound 28], the “Toxicity (% positive for DAPI takeup @ 50 μM)” value in data set [1] (Table 3) was 18.3%. The “Toxicity (% positive for DAPI take-up at 50 μM)*” value in data set [1] (Table 3 Supplement A) amounted to 18.26%. The “Inspection of round cells” value in data set [2] (1.6 μM), in data set [2] (3.1 μM), in data set [2] (6.3 μM), in data set [2] (12.5 μM), in data set [2] (25.0 μM) and in data set [2] (50.0 μM) was 0 in each case. For the same compound, the figures for the EC50 in data set [3] (setting [5]) and in data set [3] (setting [6]) were 6.3 µM and 6.32 µM, respectively. The “Visual inspection of crystallization” value in data set [4] (1.6 μM), in data set [4] (3.1 μM), in data set [4] (6.3 μM), in data set [4] (12.5 μM), in data set [4] (25.0 μM) and in data set [4] (50.0 μM) was 0 in each case.
Take `OC[C@H](Nc1ncnc2[nH]cnc12)c1ccccc1` [Compound 75]: the “Toxicity (% positive for DAPI takeup @ 50 μM)” value in data set [1] (Table 3) was found to be 14.5%. Further, the “Toxicity (% positive for DAPI take-up at 50 μM)*” value in data set [1] (Table 3 Supplement A) stood at 14.49%. Further, the EC50 turned out to be 3.5 µM in data set [3] (setting [5]) and 3.48 µM in data set [3] (setting [6]).
Turning to `c1ccc2c(c1)OCC[C@@H]2Nc1ncnc2[nH]cnc12` [Compound 59], the “Toxicity (% positive for DAPI takeup @ 50 μM)” value in data set [1] (Table 3) was determined as 17.0%. In data set [1] (Table 3 Supplement A), the “Toxicity (% positive for DAPI take-up at 50 μM)*” value is given as 19.76%. Besides, the EC50 in data set [3] (setting [5]) turned out to be 1.8 µM; in data set [3] (setting [6]), 1.69 µM.
The like results for `CC(C)[C@@H](Nc1ncnc2[nH]c(C(F)(F)F)cc12)c1cncnc1` [Compound 26] were, in that order, 6.8%, 6.82%, 6.9 µM and 6.85 µM.
For `Cc1nc2c(N[C@H](C)c3ccccc3)ncnc2[nH]1` [Compound 73], the “Toxicity (% positive for DAPI takeup @ 50 μM)” value in data set [1] (Table 3) was found to be 9.7%. The “Toxicity (% positive for DAPI take-up at 50 μM)*” value in data set [1] (Table 3 Supplement A) was determined as 9.69%. Further, the EC50 was over 50 µM in data set [3] (setting [5]) and over 25 µM in data set [3] (setting [6]).
Regarding `COc1ccc2c(c1)CCCC2Nc1ncnc2[nH]c(C(F)(F)F)cc12` (stereo not drawn) [Compound 14], in data set [1] (Table 2), the “Toxicity (% positive for DAPI takeup @ 50 μM)” value is 95.5%. The activation at 1.6 µM in data set [3] (Homo sapiens, HeLa, 6 h, Table 2, % activation of mitophagy at 1.6 μM treatment of the compound, read-out: Potency at 1 μM F/O toxin*) was determined as 29.8%.

The values above are taken from US20220162215A1, “COMPOSITIONS AND METHODS OF USING THE SAME FOR TREATMENT OF NEURODEGENERATIVE AND MITOCHONDRIAL DISEASE” (MITOKININ, INC., priority 2019, published 2022).
